Patent US20240166723A1, “MECHANOCHEMICAL GENERATION OF NOVEL COLLAGEN GEL ARCHITECTURES AND SCAFFOLDS” (Yale University, priority 2022, published 2024)

Columns and labels:
MDA-MB-231 cells [1] = test: Morphology of MDA-MB-231 cells under drug treatment in normal versus thick collagen; type: cell-based, human; details: for cell shape and protrusions / cell morphology versus control: normal and thick collagen; for cell shape and protrusions / F-actin accumulation on the cell periphery: day2; for cell morphology versus control: Y27632 30 μM, CK666 50 μM, SMIFH2 50 μM; for effect on cell morphology: normal collagen
Description: (§1) To investigate the specific molecular mechanism behind the elevated migration of MDA-MB-231 cells in thick collagen, the following drugs were tested in these gels: pan-MMP inhibitor GM6001 (20 μM), potent selective Cdc42 inhibitor ML141 (10 μM), ROCK inhibitor Y27632 (30 μM), ARP2/3 inhibitor CK666 (50 μM), formin inhibitor SMIFH2 (50 μM) and Rac1 inhibitors NSC23766 (100 μM) and EHT1864 (20 μM). First cell morphology was traced and quantified. […] The graphic illustration of each morphological index can be found in FIG. 12B.
(§2) Drugs were reconstituted and stored following manufacturers' recommendations and diluted in culture media to working concentrations. Specifically, 20 μM pan-MMPs inhibitor GM6001(Abcam, ab120845), 30 μM ROCK inhibitor Y27632 (Abcam, ab144494), 10 μM Cdc42 inhibitor ML141 (Calbiochem®217708), 50 μM formin inhibitor SMIFH2 (Abcam, ab218296), 50 μM ARP2/3 inhibitor CK666 (Abcam, ab141231), 100 μM Rac1 inhibitor NSC23766, 20 μM Rac1 inhibitor EHT1864 (Cayman 17258) were used. Fresh media mixed with specific drug were prepared right before experiment and replaced daily. In the drug assays, at least two independent experiments were performed with at least two replicates (technical duplicates) in each experiment.
In this equation, N is the total step number, n is the n-th step, x,y are the x,y coordinates respectively. For morphology analysis, z projected tilescan images were segmented and analyzed by in-house MATLAB codes. Segmentation performance was validated, with wrong segmentation manually corrected or removed. For difficult automatic segmentation data such as the Y27632 treated condition, manually tracked data were supplemented. The definitions of elongation, compactness, sphericity and shape variance were described in FIG. 4B (Liu, Scientific Reports 2022, 12, 791). A custom ImageJ script was used to derive the colocalization of the YAP/TAZ signal in the nucleus and cytoplasm. Specifically, the central plane of each cell is first extracted. DAPI and YAP/TAZ channels are then used to produce masks for cell nucleus and cell body respectively. Nucleus YAP/TAZ is calculated by averaging YAP/TAZ intensity within the nucleus mask and cytoplasmic YAP/TAZ is calculated by averaging YAP/TAZ intensity outside the nucleus mask but within cell body. To note, only YAP/TAZ of focal plane is used for average calculation. For thick collagen bundle size measurement, “Analyze Particle” function from Fiji was used.

[2] = system: PDGF-induced lamellipodia formation; details: cited from earlier work
MDA-MB-231 cells [3] = test: Migration inhibition drug assay: MDA-MB-231 cell migration in 3D collagen; type: cell-based, human; details: thick collagen, day0 and day1; GM6001 20 μM, Y27632 30 μM, ML141 10 μM, SMIFH2 50 μM, NSC23766 100 μM
Description: as §1
Apart from morphology signatures, cell migration was also tracked (FIG. 5A-C, FIG. 13A-B and FIG. 18A). […] GM6001-treated MDA-MB-231 cells in thick collagen migrated as actively as the DMSO control, both increased compared to cells in normal collagen. […] However, the interpretation of NSC23766 was confounded by the poor performance of another […]. NSC23766 binds directly to Rac1 and blocks the interaction between GEF Trio or Tiam (Gao et al., Proceedings Of The National Academy Of Sciences Of The United States Of America, 2004, 101, 7618-7623). EHT1864 binds to Rac1 but it is an allosteric inhibitor for guanine association. […] The differential preference between MDA-MB-231 cells for a stiff substrate and metastatic ovarian cancer cells (MOCC) for compliant substrate for migration (McGrail et al., Journal of Cell Science 2014, 127, 2621-2626); McGrail et al., Physical Biology 2015, 12, 026001) may be dictated by Rac1 and […], respectively.
as §2
Imaging was performed using a Leica SP8 confocal microscope. Time-lapse imaging (XYZT mode) was taken with a 20× objective (0.75 NA), with time interval set to 3 minutes or 6 minutes and z-step size set to 2 μm. Day0 time-lapse imaging was acquired between around 0hr to 12 hrs post embedding cells into gels. Day1 time-lapse imaging was acquired between around 24 hrs to 36 hrs post gel-embedment. Overview tilescan images were taken at day1, day2 or day5 respectively.
To track cell migration, XYZT data were first reduced in dimensions by conducting standard deviation projection along the z-axis. The XYT data were then processed by TrackMate in Fiji and produced cell trajectories. Trajectories were exported to MATLAB to calculate average speed and mean squared displacement. Average speed specifically refers to the mean of the absolute value of the net displacement of the cell center per hour. Mean squared displacements were computed with the following equation (Gorelik, Nature Protocols 2014, 9, 1931-1943): […]

[4] = system: human pancreatic cancer cells PANC-1; details: aligned matrix fiber; cited from earlier work
OVCA429 = details: 2D conditions; cited from earlier work
SKOV3ip = details: 2D conditions; cited from earlier work
[5] = system: D1 murine mesenchymal stem cells (MSCs); test: MSC migration in collagen gels, time-lapse confocal cell tracking; details: MSCs treated with inhibitors of myosin-based contractility, day 6
Description: To determine how island architecture modulates stem cell behavior, DI MSC's were seeded in gels that were adherent to polydopamine covered glass (FIG. 37). Polydopamine allows for collagen to remain anchored to surfaces for imaging and prevents total compaction of the gel during experiments (Park et al., ACS Applied Materials & Interfaces 2019, 11, 23919-23925). MSC migration in gels were then visualized. To capture cell migration in these gels, a stable LifeAct-RFP dye was transduced into MSCs and then these encapsulated cells were imaged with time-lapse confocal fluorescence microscopy. Cell tracking analysis was performed to determine migration metrics (FIG. 22A). The cells both 1 day after seeding and 6 days after seeding were imaged for 12 hour timelapses. […] After 6 days of culture, differences in migratory behavior were observed between MSCs cultured in different island gels (FIG. 22B).
D1 MSCs or D1 MSC-LifeActRFP cells were mixed with the collagen solution prior to gelation to achieve a final cell concentration of 15000 cells/ml. Cells were cultured in 50%/50% mixture of the osteogenic induction medium and adipogenic induction medium (differentiation medium). The differentiation medium contained 50 μg/ml L-ascorbic acid (MilliporeSigma), 10 mM β-glycerophosphate (MilliporeSigma), and 0.1 μM dexamethasone (MilliporeSigma) in the DMEM growth medium.
MSC time lapses were performed in 12 well glass bottom dishes which had been polydopamine coated. 12 hour time lapses were taken on Day 1 and Day 6. Automatic cell segmentation was obtained using Imaris (Oxford Instruments). Manual filtering was done to determine which cells were to be used for downstream analysis. From these segmentations, cell movement was tracked and metrics such as mean speed, sphericity, and migration track length over the timelapse were obtained. Mean speed is defined as the average of instantaneous speeds between timepoints.

[6] = system: chronic lymphocytic leukemia cells; details: cited from earlier work

Cc1[nH]c2ccccc2c1CCNC(=O)c1ccccc1F [CK666]
cell shape and protrusions (MDA-MB-231 cells [1]): elongated and stretched | cell morphology versus control (MDA-MB-231 cells [1]; NSC23766 100 μM): distinct morphologies compared with control

O=c1cc(CN2CCOCC2)occ1OCCCCCSc1ccnc2cc(C(F)(F)F)ccc12 [EHT1864]
effect on cell morphology (MDA-MB-231 cells [1]): all cells are round | PDGF-induced lamellipodia formation [2]: can inhibit PDGF-induced lamellipodia formation

CNC(=O)[C@H](Cc1c[nH]c2ccccc12)NC(=O)[C@@H](CC(=O)NO)CC(C)C [GM6001]
MDA-MB-231 cell migration (MDA-MB-231 cells [3]): failed to inhibit MDA-MB-231 cell migration | effect on cell morphology (MDA-MB-231 cells [1]): all cells are round

COc1ccc(C2CC(c3ccccc3)=NN2c2ccc(S(N)(=O)=O)cc2)cc1 (centres unmarked) [ML141]
MDA-MB-231 cell migration (MDA-MB-231 cells [3]): did not show significant inhibition | effect on cell morphology (MDA-MB-231 cells [1]): all cells are round | cell movement [4]: moved faster in aligned matrix fiber regardless of ML141 treatment | inhibition of migration (OVCA429): does inhibit | inhibition of migration (SKOV3ip): does inhibit

O=S(=O)(c1cccc2c(I)cccc12)N1CCCNCC1 [ML-7]
cell migration track length [5]: decreases in cell migration track length

CCN(CC)CCCC(C)Nc1nc(C)cc(Nc2ccc3nc(C)cc(N)c3c2)n1 (centres unmarked) [NSC23766]
MDA-MB-231 cell migration (MDA-MB-231 cells [3]): significantly reduced MDA-MB-231 cell migration | cell size (MDA-MB-231 cells [1]; NSC23766 100 μM): smaller than most other drug conditions | F-actin accumulation on the cell periphery (MDA-MB-231 cells [1]): clearly visible | cell morphology versus control (MDA-MB-231 cells [1]; NSC23766 100 μM): distinct morphologies compared with control | effect on cell morphology (MDA-MB-231 cells [1]): all cells are round | cell migration track length [5]: decreases in cell migration track length | cell movement [4]: inhibited cell movement, regardless of collagen fiber orientation | proliferation [6]: proliferation arrest

O=C1NC(=S)N(c2cccc(Br)c2)C(=O)/C1=C/c1ccco1 [SMIFH2]
MDA-MB-231 cell migration (MDA-MB-231 cells [3]): significantly reduced MDA-MB-231 cell migration | F-actin accumulation on the cell periphery (MDA-MB-231 cells [1]): lacked F-actin accumulation on the cell periphery | cell shape and protrusions (MDA-MB-231 cells [1]): round and lacked cell peripheral fluctuations | cell morphology versus control (MDA-MB-231 cells [1]; NSC23766 100 μM): distinct morphologies compared with control | effect on cell morphology (MDA-MB-231 cells [1]): all cells are round

C[C@@H](N)[C@H]1CC[C@H](C(=O)Nc2ccncc2)CC1 [Y27632]
MDA-MB-231 cell migration (MDA-MB-231 cells [3]): significantly reduced MDA-MB-231 cell migration | cell shape and protrusions (MDA-MB-231 cells [1]): extremely long cell protrusions | cell morphology versus control (MDA-MB-231 cells [1]; NSC23766 100 μM): distinct morphologies compared with control | cell migration track length [5]: decreases in cell migration track length
